In patent US20220220145A1, “CYCLIC PHOSPHATE COMPOUNDS” (priority 2019, published 2022):

Assay: Tissue distribution following oral administration of reference compounds and the disclosed compounds
Type: in vivo
Conditions: rats; for levels of nucleoside phosphates in the liver compared to the reference compounds: oral administration, statement in words summarising Table 1
Protocol: The liver specificity of the disclosed compounds is compared relative to a corresponding active compound in liver and other organs that could be targets of toxicity.
Reference compounds and the cyclic phosphate compounds were administered at 5-50 mg/kg to fasted rats by oral gavage. Plasma concentrations of the metabolites, and parent compounds in circulation and in the hepatic portal vein were determined by HPLC-UV, and the liver, small intestine, and other organ concentrations were measured by LC-MS using standard chromatography methods.

levels of nucleoside phosphates in the liver compared to the reference compounds | SMILES | NUCHPV: ratio of new compound vs corresponding reference compound in nucleoside level in hepatic portal vein (HPV) (one hour after oral administration at 5 mg/kg nucleoside equivalent dose, hepatic portal vein) | NMPliver: ratio of new compound vs corresponding reference compound in nucleoside monophosphate level in the liver (one hour after oral administration at 5 mg/kg nucleoside equivalent dose, liver) | NUCblood: ratio of new compound vs corresponding reference compound in nucleoside level in systemic blood (one hour after oral administration at 5 mg/kg nucleoside equivalent dose, systemic blood)
substantially higher levels | [2H]C([2H])([2H])c1cn([C@H]2C[C@@H]3OP(=O)(OCc4ccccc4C(=O)OCCC)OC[C@H]3O2)c(=O)[nH]c1=O (stereo partly drawn) [Compound 106, Propyl 2-((((4aR,6R,7aS)-6-(5-(methyl-d3)-2,4-dioxo-3,4-dihydropyrimidin-1(2H)-yl)-2-oxidotetrahydro-4H-furo[3,2-d][1,3,2]dioxaphosphinin-2-yl)oxy)methyl)benzoate] |  |  | 
substantially higher levels | CC(C)OC(=O)c1ccccc1COP1(=O)OC[C@H]2O[C@@H](n3ccc(=O)[nH]c3=O)[C@](C)(F)[C@@H]2O1 (stereo partly drawn) [Compound 107, Isopropyl 2-((((4aR,6R,7R,7aR)-6-(2,4-dioxo-3,4-dihydropyrimidin-1(2H)-yl)-7-fluoro-7-methyl-2-oxidotetrahydro-4H-furo[3,2-d][1,3,2]dioxaphosphinin-2-yl)oxy)methyl)benzoate] |  |  | 
 | [2H]C([2H])([2H])c1cn([C@H]2C[C@H](O)[C@@H](CO)O2)c(=O)[nH]c1=O [Thymidine-d3] | 1.0 | 1.0 | 1.0
